Assay results as given in patent US7192734B2, “Method of testing for the presence of microorganisms in a gaseous environment comprising hydrogen peroxide” (Millipore Corporation, priority 2002, dated 2007).

Columns and labels:
[1] = tested on: microorganisms; settings: 1 m^3 air comprising 0.3 ppm sprayed hydrogen peroxide; TSA growth medium
[2] = tested on: microorganisms; experiment: Level of recovery of microorganisms on TSA medium with 1% sodium pyruvate, after impact of air comprising hydrogen peroxide vapour (Examples 3 and 4); assay type: cell-based; settings: 1 m^3 air, 8 ppm hydrogen peroxide vapour; TSA + 1% by weight sodium pyruvate
Method: Example 1 was reproduced but with the use of 1 m^3 of air comprising 8 ppm (instead of 0.3 ppm) of hydrogen peroxide vapour (instead of sprayed hydrogen peroxide which was impacted, firstly, on a TSA growth medium, then, secondly, on the TSA medium to which 1% by weight of sodium pyruvate was added.
The results obtained are shown in FIG. 2, in which the x-axis represents the nature of the microorganisms and the y-axis represents the level of recovery.
Example 3 was reproduced by sampling 1 m^3 of air comprising 8 ppm of hydrogen peroxide which were impacted, firstly, on the same TSA growth medium to which 1% by weight of sodium pyruvate was added, not sterilized by the action of gamma radiation. Then, secondly, the same test was repeated but, this time, on the same growth medium sterilized by the action of gamma radiation.
The results obtained are shown in FIG. 3, in which the x-axis represents the nature of the microorganisms and the y-axis represents the level of recovery.

[3] = tested on: Miccrococus luteus ATCC9342; experiment: Tolerance in drastic conditions: 100 and 300 ppm hydrogen peroxide, 1% and 5% pyruvate in TSA (Example 5, part 3, Table I); assay type: cell-based, Miccrococcus luteus; settings: hydrogen peroxide 300 ppm; pyruvate 5%
Description: The conditions of Example 3 were reproduced using high concentrations of pyruvate (≧1%), in the presence or absence of hydrogen peroxide in the gaseous environment.
3/ Tolerance of Miccrococcus luteus in drastic conditions, when hydrogen peroxide is raised up to 300 ppm in the gaseous environment and the concentration of pyruvate is up to 5% by weight of agar growth medium.
Miccrococcus luteus growth has been monitored using respectively 100 ppm and 300 ppm of hydrogen peroxide, whereas the concentration of pyruvate by weight of TSA agar growth medium was 1% and 5%.

Compound	effect on formation of colonies of microorganisms [1]	formation and counting of colonies of microorganisms [2]	growth of Miccrococcus luteus [3]
OO [hydrogen peroxide]	inhibiting of the formation of the colonies of microorganisms	–	–
CC(=O)C(=O)[O-].[Na+] [sodium pyruvate]	–	permits the formation and counting of colonies of microorganisms	enable growth of Miccrococcus luteus
